Results published in PMC4791643, “Reconstruction of diaminopimelic acid biosynthesis allows characterisation of Mycobacterium tuberculosis N-succinyl-L,L-diaminopimelic acid desuccinylase” (Scientific Reports, 2016).

Target: T1, MtDapE (Mycobacterium tuberculosis, UniProt P9WHS9)
T1 construct: gene dapE
Assay: inhibition in coupled assay, preincubated with inhibitor, NADPH at […] nm
Type: biochemical
Details: for inhibition at 1000 µM: read-out: % inhibition at 1 mM

T1 sequence (P9WHS9 whole entry, looked up): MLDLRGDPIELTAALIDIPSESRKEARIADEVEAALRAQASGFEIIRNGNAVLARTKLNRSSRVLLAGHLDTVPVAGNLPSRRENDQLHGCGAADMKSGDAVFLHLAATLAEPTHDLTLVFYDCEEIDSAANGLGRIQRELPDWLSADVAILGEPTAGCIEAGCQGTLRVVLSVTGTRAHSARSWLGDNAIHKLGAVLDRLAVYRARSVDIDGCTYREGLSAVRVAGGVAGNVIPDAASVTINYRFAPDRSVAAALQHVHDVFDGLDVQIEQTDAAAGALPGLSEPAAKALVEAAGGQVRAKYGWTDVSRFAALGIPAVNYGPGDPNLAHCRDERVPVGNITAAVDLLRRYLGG

SMILES | inhibition at 10000 µM (read-out: % inhibition at 10 mM) [%] | inhibition at 1000 µM [%]
OB(O)c1cccs1 [2-thiopheneboronic acid] | 22.3 | 
C[C@H](CS)C(=O)N1CCC[C@H]1C(=O)O [L-captopril] |  | 23.3
CC(C)(S)[C@H](N)C(=O)O [L-penicillamine] |  | 79.4
